In PubChem BioAssay AID2060905 (Molecular Pharmacology Branch, DTP, NCI, 2025):
Values belong to the compound of their own block, whether it stands above or below them.

Test system: 282377-053-R-J1-PDC complex spheroid viability
Assay: Anticancer human tumor 282377-053-R-J1-PDC patient-derived colon adenocarcinoma cell line growth inhibition [RAS]
Conditions: for IC50: curve of first compound; for viability, T/C: stronger effect = lower value
Description: RAS pathway inhibitors in Combinations in Complex Spheroids
A high-throughput screen of multi-cell type tumor spheroids was designed to identify active combinations of RAS pathway inhibitors and targeted small molecules. Complex spheroids include a stromal component modeled by human endothelial cells (HUVEC) and fibroblasts modeled by human mesenchymal stem cells (MSCs). The concentration ranges selected for each drug and investigational agent were based upon clinically achievable concentrations if the clinical Cmax of the agent was known.
Compounds. The drugs and investigational agents: abemaciclib (NSC768073), cobimetinib (NSC768068), divarasib (GDC6063, NSC841802), docetaxel (NSC628503), GDC-1971 (RLY-1971, NSC841576), gemcitabine (NSC613327), inavolisib (NSC800729), ipatasertib (NSC767898), KB-0742 (NSC834161), MRTX-1133 (NSC836407), osimertinib (NSC779217), RMC-4630 (NSC839698), RMC-6236 (NSC851965), RMC-6291 (NSC852671), Ro-3306 (NSC812927), sapanisertib (NSC764658), SN-38 (NSC673596), staurosporine (NSC755774), SY5609 (NSC837396), and tovorafenib (DAY101, NSC766906), were obtained from the National Cancer Institute (NCI) Developmental Therapeutics Program Chemical Repository. The FDA-approved anticancer drug set is available from the NCI Developmental Therapeutics Program. […] The stock solutions were prepared in dimethyl sulfoxide (DMSO, Sigma-Aldrich, St. Louis, MO, cat. D2650) at 800-fold the tested concentration and stored at -70 degrees C prior to their use. All drugs and investigational agents were tested over a range starting from a high concentration at or near the clinical Cmax and decreasing in half-log increments. If the clinical Cmax for an agent had not been determined, the highest concentration tested was 10 microM.
Cell Culture. All cells were maintained in an incubator at 37 degrees C and 5% CO2 with 95% humidity. The PDC lines were cultured according to standard operating procedures established by the NCI PDMR. All PDCs were thawed and cultured in Matrigel-coated flasks prepared with a working solution of 1X Ham's F-12 nutrient mix, without supplementation (Invitrogen, Waltham, MA, cat. 11765054), 100 U/mL penicillin-streptomycin (Invitrogen, cat. 15140122), and 2.5% Matrigel (Corning Inc., Corning, NY, cat. 354248) for the first three passages. The 362531-283-R-J2-PDC and 782815-120-R-J1-PDC lines were cultured in 6C/Colon 1B media, which includes advanced DMEM/F-12 (Thermo Fisher Scientific, cat. 12634028), 10 mM HEPES (Thermo Fisher Scientific, cat. 15630080), 1X GlutaMAX supplement (Thermo Fisher Scientific, cat. 35050061), 0.1 mg/mL primocin (InvivoGen, San Diego, CA, cat. ant-pm-2), 10% defined fetal bovine serum, heat inactivated (HyClone Laboratories Inc., Logan, UT, cat. SH30070.03HI), 50% L-WRN conditioned media (ATCC, cat. CRL-3276), 1.25 mM N-Acetyl-L-cysteine (Sigma-Aldrich, cat. A9165), 10 mM nicotinamide (Sigma-Aldrich, cat. N0636), 1X B-27 supplement (Thermo Fisher Scientific, cat. 17504044), 1X N-2 supplement (Thermo Fisher Scientific, cat. 17502048), 50 ng/mL human EGF (Thermo Fisher Scientific, cat. PHG0311), and 10 microM Y-27632 dihydrochloride (Tocris Bioscience, cat. 1254). The K12877-001-R-J1-PDC line was cultured in 6I media, which includes all 6C/Colon 1B media plus 10 ng/mL human FGF-10 (PeproTech, cat. 100-26), 1 ng/mL human FGF-2 (PeproTech, cat. 100-18B), 1 µM prostaglandin E2 (Tocris Bioscience, cat. 2296), […] hydrocortisone (Sigma-Aldrich, cat. H4001), and […] bovine insulin (Sigma-Aldrich, cat. I6634). The K86415-001-R-J1-PDC line was cultured in 6D media, which includes all 6C/Colon 1B media components minus the L-WRN conditioned media. The 485176-168-R4-J1-PDC was cultured in PANC media, which includes all 6C/Colon 1B media plus 100 ng/mL human FGF-10 (PeproTech, cat. 100-26), 500 nM SB-431542 (Selleckchem, cat. S1067), and 10 nM gastrin (Tocris Bioscience, cat. 3006). […]

[1] = second compound 0.0316 µM, first compound 0.0316 µM
[2] = second compound 0.0316 µM, first compound 0.1 µM
[3] = second compound 0.0316 µM, first compound 0.316 µM
[4] = second compound 0.0316 µM, first compound 1 µM
[5] = second compound 0.1 µM, first compound 0.0316 µM
[6] = second compound 0.1 µM, first compound 0.1 µM
[7] = second compound 0.1 µM, first compound 0.316 µM
[8] = second compound 0.1 µM, first compound 1 µM
[9] = second compound 0.316 µM, first compound 0.0316 µM
[10] = second compound 0.316 µM, first compound 0.1 µM
[11] = second compound 0.316 µM, first compound 0.316 µM
[12] = second compound 0.316 µM, first compound 1 µM
[13] = second compound 1 µM, first compound 0.0316 µM
[14] = second compound 1 µM, first compound 0.1 µM
[15] = second compound 1 µM, first compound 0.316 µM
[16] = second compound 1 µM, first compound 1 µM
[17] = second compound 3.16 µM, first compound 0.0316 µM
[18] = second compound 3.16 µM, first compound 0.1 µM
[19] = second compound 3.16 µM, first compound 0.316 µM
[20] = second compound 3.16 µM, first compound 1 µM
[21] = second compound 10 µM, first compound 0.0316 µM
[22] = second compound 10 µM, first compound 0.1 µM
[23] = second compound 10 µM, first compound 0.316 µM
[24] = second compound 10 µM, first compound 1 µM
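Further: spheroids exposed to agents for seven days before readout.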
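Wherever viability, T/C is given: luminescence viability as percent of DMSO vehicle control wells.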

IC50 (second compound 0.0316 µM): > 10000 nM
IC50 (second compound 0.1 µM): > 10000 nM
IC50 (second compound 0.316 µM): > 10000 nM
IC50 (second compound 1 µM): > 10000 nM
IC50 (second compound 3.16 µM): > 10000 nM
IC50 (second compound 10 µM): > 10000 nM
Structure (SMILES): NC1c2ccccc2OC12CCN(c1cnc3c(N4CCCc5ncccc54)n[nH]c3n1)CC2 (centres undefined) + C#Cc1c(F)ccc2cc(O)cc(-c3ncc4c(N5CC6CCC(C5)N6)nc(OCC56CCCN5CC(F)C6)nc4c3F)c12
viability, T/C [1]: 92.2%
viability, T/C [2]: 91.7%
viability, T/C [3]: 111%
viability, T/C [4]: 104%
viability, T/C (second compound 0.0316 µM, first compound 3.16 µM): 88.3%
viability, T/C (second compound 0.0316 µM, first compound 10 µM): 67.5%
viability, T/C [5]: 90.7%
viability, T/C [6]: 85.5%
viability, T/C [7]: 99.2%
viability, T/C [8]: 71.9%
viability, T/C (second compound 0.1 µM, first compound 3.16 µM): 110%
viability, T/C (second compound 0.1 µM, first compound 10 µM): 73%
viability, T/C [9]: 105%
viability, T/C [10]: 87.4%
viability, T/C [11]: 78.4%
viability, T/C [12]: 95.6%
viability, T/C (second compound 0.316 µM, first compound 3.16 µM): 94.8%
viability, T/C (second compound 0.316 µM, first compound 10 µM): 78.7%
viability, T/C [13]: 83%
viability, T/C [14]: 88.1%
viability, T/C [15]: 106%
viability, T/C [16]: 92.5%
viability, T/C (second compound 1 µM, first compound 3.16 µM): 85.1%
viability, T/C (second compound 1 µM, first compound 10 µM): 83%
viability, T/C [17]: 90.4%
viability, T/C [18]: 96%
viability, T/C [19]: 99.6%
viability, T/C [20]: 86.5%
viability, T/C (second compound 3.16 µM, first compound 3.16 µM): 90.4%
viability, T/C (second compound 3.16 µM, first compound 10 µM): 77.1%
viability, T/C [21]: 115%
viability, T/C [22]: 105%
viability, T/C [23]: 108%
viability, T/C [24]: 84.7%
viability, T/C (second compound 10 µM, first compound 3.16 µM): 109%
viability, T/C (second compound 10 µM, first compound 10 µM): 81.6%

IC50 (second compound 0.0316 µM): 633 nM
IC50 (second compound 0.1 µM): 251 nM
IC50 (second compound 0.316 µM): 440 nM
IC50 (second compound 1 µM): 258 nM
IC50 (second compound 3.16 µM): 544 nM
IC50 (second compound 10 µM): > 1000 nM
Structure (SMILES): Nc1ccn(C2OC(CO)C(O)C2(F)F)c(=O)n1 (centres undefined) + C#Cc1c(F)ccc2cc(O)cc(-c3ncc4c(N5CC6CCC(C5)N6)nc(OCC56CCCN5CC(F)C6)nc4c3F)c12
viability, T/C (second compound 0.0316 µM, first compound 0.00316 µM): 133%
viability, T/C (second compound 0.0316 µM, first compound 0.01 µM): 117%
viability, T/C [1]: 85.4%
viability, T/C [2]: 79.5%
viability, T/C [3]: 59%
viability, T/C [4]: 43.1%
viability, T/C (second compound 0.1 µM, first compound 0.00316 µM): 96%
viability, T/C (second compound 0.1 µM, first compound 0.01 µM): 89.7%
viability, T/C [5]: 101%
viability, T/C [6]: 76.8%
viability, T/C [7]: 44.6%
viability, T/C [8]: 37.9%
viability, T/C (second compound 0.316 µM, first compound 0.00316 µM): 115%
viability, T/C (second compound 0.316 µM, first compound 0.01 µM): 92.5%
viability, T/C [9]: 99.4%
viability, T/C [10]: 77%
viability, T/C [11]: 51.1%
viability, T/C [12]: 42.3%
viability, T/C (second compound 1 µM, first compound 0.00316 µM): 100%
viability, T/C (second compound 1 µM, first compound 0.01 µM): 101%
viability, T/C [13]: 107%
viability, T/C [14]: 69.6%
viability, T/C [15]: 51.3%
viability, T/C [16]: 40.2%
viability, T/C (second compound 3.16 µM, first compound 0.00316 µM): 89.8%
viability, T/C (second compound 3.16 µM, first compound 0.01 µM): 86%
viability, T/C [17]: 89.1%
viability, T/C [18]: 73.1%
viability, T/C [19]: 56.6%
viability, T/C [20]: 43.3%
viability, T/C (second compound 10 µM, first compound 0.00316 µM): 99.2%
viability, T/C (second compound 10 µM, first compound 0.01 µM): 99.3%
viability, T/C [21]: 92.8%
viability, T/C [22]: 69.8%
viability, T/C [23]: 62.5%
viability, T/C [24]: 54.5%
